{"source": "PubChem BioAssay AID1845208", "about": "(Molecular Pharmacology Branch, DTP, NCI, 2023)", "tested_on": "NCI-H196 SCLC complex tumor spheroid viability", "assay": "Anticancer human tumor NCI-H196 cell line growth inhibition;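 as to all read-outs here: spheroids exposed to compounds for 7 days before readout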;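 as to viability, T/C: 100% = DMSO vehicle control wells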", "conditions": "for pIC50: curve of first compound; for viability, T/C: stronger effect = lower value", "method_in_brief": "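Single agents and combinations were tested on spheroids built from tumor cells plus HUVEC and hMSC, at half-log dilutions starting at or near clinical Cmax, else 10 microM; final DMSO 0.25% (v/v).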", "note": "pIC50: −log10 of the molar value."}
{"smiles": "Cc1sc2c(c1C)C(c1ccc(Cl)cc1)=NC(CC(=O)Nc1ccc(O)cc1)c1nnc(C)n1-2", "note": "(stereo not given) + Cn1nnc2c(C(N)=O)ncn2c1=O", "values": [{"measurement": "pIC50", "setting": "second compound 1 µM", "result": 6.23}, {"measurement": "pIC50", "setting": "second compound 3.16 µM", "result": 6.17}, {"measurement": "pIC50", "setting": "second compound 10 µM", "result": 6.15}, {"measurement": "pIC50", "setting": "second compound 31.6 µM", "result": 5.87}, {"measurement": "pIC50", "setting": "second compound 100 µM", "result": 5.61}, {"measurement": "viability, T/C", "setting": "second compound 1 µM, first compound 0.00949 µM", "result": 102, "unit": "%"}, {"measurement": "viability, T/C", "setting": "second compound 1 µM, first compound 0.03 µM", "result": 99.5, "unit": "%"}, {"measurement": "viability, T/C", "setting": "second compound 1 µM, first compound 0.0949 µM", "result": 86.6, "unit": "%"}, {"measurement": "viability, T/C", "setting": "second compound 1 µM, first compound 0.3 µM", "result": 68.1, "unit": "%"}, {"measurement": "viability, T/C", "setting": "second compound 1 µM, first compound 0.949 µM", "result": 37.3, "unit": "%"}, {"measurement": "viability, T/C", "setting": "second compound 1 µM, first compound 3 µM", "result": 21.1, "unit": "%"}, {"measurement": "viability, T/C", "setting": "second compound 3.16 µM, first compound 0.00949 µM", "result": 103, "unit": "%"}, {"measurement": "viability, T/C", "setting": "second compound 3.16 µM, first compound 0.03 µM", "result": 97.4, "unit": "%"}, {"measurement": "viability, T/C", "setting": "second compound 3.16 µM, first compound 0.0949 µM", "result": 98.8, "unit": "%"}, {"measurement": "viability, T/C", "setting": "second compound 3.16 µM, first compound 0.3 µM", "result": 75.5, "unit": "%"}, {"measurement": "viability, T/C", "setting": "second compound 3.16 µM, first compound 0.949 µM", "result": 39, "unit": "%"}, {"measurement": "viability, T/C", "setting": "second compound 3.16 µM, first compound 3 µM", "result": 23.3, "unit": "%"}, {"measurement": "viability, T/C", "setting": "second compound 10 µM, first compound 0.00949 µM", "result": 105, "unit": "%"}, {"measurement": "viability, T/C", "setting": "second compound 10 µM, first compound 0.03 µM", "result": 102, "unit": "%"}, {"measurement": "viability, T/C", "setting": "second compound 10 µM, first compound 0.0949 µM", "result": 91.6, "unit": "%"}, {"measurement": "viability, T/C", "setting": "second compound 10 µM, first compound 0.3 µM", "result": 69.1, "unit": "%"}, {"measurement": "viability, T/C", "setting": "second compound 10 µM, first compound 0.949 µM", "result": 44, "unit": "%"}, {"measurement": "viability, T/C", "setting": "second compound 10 µM, first compound 3 µM", "result": 27.6, "unit": "%"}, {"measurement": "viability, T/C", "setting": "second compound 31.6 µM, first compound 0.00949 µM", "result": 108, "unit": "%"}, {"measurement": "viability, T/C", "setting": "second compound 31.6 µM, first compound 0.03 µM", "result": 106, "unit": "%"}, {"measurement": "viability, T/C", "setting": "second compound 31.6 µM, first compound 0.0949 µM", "result": 93.7, "unit": "%"}, {"measurement": "viability, T/C", "setting": "second compound 31.6 µM, first compound 0.3 µM", "result": 87.1, "unit": "%"}, {"measurement": "viability, T/C", "setting": "second compound 31.6 µM, first compound 0.949 µM", "result": 54.5, "unit": "%"}, {"measurement": "viability, T/C", "setting": "second compound 31.6 µM, first compound 3 µM", "result": 34.9, "unit": "%"}, {"measurement": "viability, T/C", "setting": "second compound 100 µM, first compound 0.00949 µM", "result": 115, "unit": "%"}, {"measurement": "viability, T/C", "setting": "second compound 100 µM, first compound 0.03 µM", "result": 105, "unit": "%"}, {"measurement": "viability, T/C", "setting": "second compound 100 µM, first compound 0.0949 µM", "result": 103, "unit": "%"}, {"measurement": "viability, T/C", "setting": "second compound 100 µM, first compound 0.3 µM", "result": 85, "unit": "%"}, {"measurement": "viability, T/C", "setting": "second compound 100 µM, first compound 0.949 µM", "result": 67, "unit": "%"}, {"measurement": "viability, T/C", "setting": "second compound 100 µM, first compound 3 µM", "result": 46.4, "unit": "%"}]}
{"smiles": "[2H]c1nc(C)nc([2H])c1-c1cc(NC[C@@H](C)c2cccc3c(C(=O)NC)ccnc23)ncn1", "note": "+ Cn1nnc2c(C(N)=O)ncn2c1=O", "values": [{"measurement": "pIC50", "setting": "second compound 1 µM", "result": "< 5.00"}, {"measurement": "pIC50", "setting": "second compound 3.16 µM", "result": "< 5.00"}, {"measurement": "pIC50", "setting": "second compound 10 µM", "result": "< 5.00"}, {"measurement": "pIC50", "setting": "second compound 31.6 µM", "result": "< 5.00"}, {"measurement": "pIC50", "setting": "second compound 100 µM", "result": "< 5.00"}, {"measurement": "viability, T/C", "setting": "second compound 1 µM, first compound 0.0316 µM", "result": 94.1, "unit": "%"}, {"measurement": "viability, T/C", "setting": "second compound 1 µM, first compound 0.1 µM", "result": 96.6, "unit": "%"}, {"measurement": "viability, T/C", "setting": "second compound 1 µM, first compound 0.316 µM", "result": 97.9, "unit": "%"}, {"measurement": "viability, T/C", "setting": "second compound 1 µM, first compound 1 µM", "result": 99.5, "unit": "%"}, {"measurement": "viability, T/C", "setting": "second compound 1 µM, first compound 3.16 µM", "result": 105, "unit": "%"}, {"measurement": "viability, T/C", "setting": "second compound 1 µM, first compound 10 µM", "result": 91.2, "unit": "%"}, {"measurement": "viability, T/C", "setting": "second compound 3.16 µM, first compound 0.0316 µM", "result": 100, "unit": "%"}, {"measurement": "viability, T/C", "setting": "second compound 3.16 µM, first compound 0.1 µM", "result": 104, "unit": "%"}, {"measurement": "viability, T/C", "setting": "second compound 3.16 µM, first compound 0.316 µM", "result": 98.5, "unit": "%"}, {"measurement": "viability, T/C", "setting": "second compound 3.16 µM, first compound 1 µM", "result": 97.5, "unit": "%"}, {"measurement": "viability, T/C", "setting": "second compound 3.16 µM, first compound 3.16 µM", "result": 90.8, "unit": "%"}, {"measurement": "viability, T/C", "setting": "second compound 3.16 µM, first compound 10 µM", "result": 96.9, "unit": "%"}, {"measurement": "viability, T/C", "setting": "second compound 10 µM, first compound 0.0316 µM", "result": 110, "unit": "%"}, {"measurement": "viability, T/C", "setting": "second compound 10 µM, first compound 0.1 µM", "result": 99.8, "unit": "%"}, {"measurement": "viability, T/C", "setting": "second compound 10 µM, first compound 0.316 µM", "result": 97.7, "unit": "%"}, {"measurement": "viability, T/C", "setting": "second compound 10 µM, first compound 1 µM", "result": 101, "unit": "%"}, {"measurement": "viability, T/C", "setting": "second compound 10 µM, first compound 3.16 µM", "result": 101, "unit": "%"}, {"measurement": "viability, T/C", "setting": "second compound 10 µM, first compound 10 µM", "result": 107, "unit": "%"}, {"measurement": "viability, T/C", "setting": "second compound 31.6 µM, first compound 0.0316 µM", "result": 109, "unit": "%"}, {"measurement": "viability, T/C", "setting": "second compound 31.6 µM, first compound 0.1 µM", "result": 104, "unit": "%"}, {"measurement": "viability, T/C", "setting": "second compound 31.6 µM, first compound 0.316 µM", "result": 108, "unit": "%"}, {"measurement": "viability, T/C", "setting": "second compound 31.6 µM, first compound 1 µM", "result": 112, "unit": "%"}, {"measurement": "viability, T/C", "setting": "second compound 31.6 µM, first compound 3.16 µM", "result": 99.8, "unit": "%"}, {"measurement": "viability, T/C", "setting": "second compound 31.6 µM, first compound 10 µM", "result": 118, "unit": "%"}, {"measurement": "viability, T/C", "setting": "second compound 100 µM, first compound 0.0316 µM", "result": 101, "unit": "%"}, {"measurement": "viability, T/C", "setting": "second compound 100 µM, first compound 0.1 µM", "result": 102, "unit": "%"}, {"measurement": "viability, T/C", "setting": "second compound 100 µM, first compound 0.316 µM", "result": 99.3, "unit": "%"}, {"measurement": "viability, T/C", "setting": "second compound 100 µM, first compound 1 µM", "result": 102, "unit": "%"}, {"measurement": "viability, T/C", "setting": "second compound 100 µM, first compound 3.16 µM", "result": 103, "unit": "%"}, {"measurement": "viability, T/C", "setting": "second compound 100 µM, first compound 10 µM", "result": 104, "unit": "%"}]}
